Reference: US12116343B2, “Inhibitors of APOL1 and methods of using same” (Vertex Pharmaceuticals Incorporated, priority 2020, dated 2024)

biological target: T1, G1 APOL1 (Homo sapiens, UniProt O14791, I384M/S342G); assay: Acute APOL1 Thallium Assay with inducible stable clones of HEK 293 cells; assay type: cell-based; settings: HEK 293 T-Rex cells expressing G1 APOL1; read-out: Thallium Assay (IC50)
T1 construct: expressed in transfected cells
T1 sequence (O14791 28-398 S342G/I384M): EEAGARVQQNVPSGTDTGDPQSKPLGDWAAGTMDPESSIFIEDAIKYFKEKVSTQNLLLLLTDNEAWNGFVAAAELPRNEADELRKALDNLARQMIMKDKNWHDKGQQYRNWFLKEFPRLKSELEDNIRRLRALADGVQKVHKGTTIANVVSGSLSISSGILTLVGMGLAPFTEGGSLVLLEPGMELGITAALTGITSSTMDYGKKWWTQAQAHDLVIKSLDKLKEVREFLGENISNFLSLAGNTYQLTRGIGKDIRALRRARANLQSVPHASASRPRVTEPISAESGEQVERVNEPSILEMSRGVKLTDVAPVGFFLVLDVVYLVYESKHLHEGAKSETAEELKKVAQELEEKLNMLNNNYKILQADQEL
Procedure, shortened: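 Readout: Tl+-triggered fluorescence, FLIPR, reflecting potassium flux through APOL1 pores after cells take up an AM-ester thallium indicator. Cells: HEK T-Rex stable clone G1 DC3.25, APOL1 G1 induced by tetracycline, seeded 26000 per well.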

SMILES	IC50 [nM]
O=C(CNC(=O)[C@H]1C[C@H](c2c(-c3ccc(F)cc3)[nH]c3c(F)cc(F)cc32)C1)NC[C@@H](O)C(F)(F)F [Compound 233]	> 1000
Cn1nccc1NC(=O)[C@H]1C[C@@H](c2c(-c3ccc(F)cc3)[nH]c3c(F)cc(F)cc32)C1 [Compound 247]	> 1000
O=C(NCCO)[C@H]1C[C@@H](c2c(-c3ccc(F)cc3)[nH]c3c(F)cc(F)cc32)C1 [Compound 237]	250 to 1000
O=C(NC(CO)CO)[C@H]1C[C@@H](c2c(-c3ccc(F)cc3)[nH]c3c(F)cc(F)cc32)C1 [Compound 241]	> 1000
O=C(NC1(CO)CCC1)[C@H]1C[C@@H](c2c(-c3ccc(F)cc3)[nH]c3c(F)cc(F)cc32)C1 [Compound 240]	250 to 1000
CC(CO)NC(=O)[C@H]1C[C@@H](c2c(-c3ccc(F)cc3)[nH]c3c(F)cc(F)cc32)C1 (mixture of isomers) [Compound 243]	> 1000
O=C1NCCC1NC(=O)[C@H]1C[C@@H](c2c(-c3ccc(F)cc3)[nH]c3c(F)cc(F)cc32)C1 (stereo partly drawn) [Compound 268]	> 1000
O=C(N[C@H]1C[C@H](O)C1)[C@H]1C[C@@H](c2c(-c3ccc(F)cc3)[nH]c3c(F)cc(F)cc32)C1 [Compound 267]	> 1000
O=C(CNC(=O)[C@H]1C[C@H](c2c(-c3ccc(F)cc3)[nH]c3c(F)cc(F)cc32)C1)NC[C@H](O)C(F)(F)F [Compound 234]	> 1000
C[C@@H](CO)NC(=O)[C@H]1C[C@H](c2c(-c3ccc(F)cc3)[nH]c3c(F)cc(F)cc32)C1 [Compound 27]	< 250
NC(=O)CNC(=O)C1CC(c2c(-c3ccc(F)cc3)[nH]c3c(F)cc(C(F)(F)F)cc23)C1 (stereo not drawn) [Compound 280]	< 250

same assay, conditions: Table 24, Compounds 287 to 465; read-out: Thallium Assay (IC50)

SMILES	IC50 [nM]
COCC(C)NC(=O)O[C@H]1C[C@H](c2c(-c3ccc(F)cc3)[nH]c3c(F)cc(F)cc32)C1 (mixture of isomers) [Compound 360]	250 to 1000
O=C(CC1CC(c2c(-c3ccc(F)cc3)[nH]c3c(F)cc(F)cc23)C1)NC1(CO)CC1 (stereo not drawn) [Compound 453]	250 to 1000
O=C(NC[C@H]1C[C@H](c2c(-c3ccc(F)cc3)[nH]c3c(F)cc(F)cc32)C1)N1CCC[C@@H]1CO [Compound 405]	> 1000
O=C(NC(CO)(CO)CO)O[C@H]1C[C@H](c2c(-c3ccc(F)cc3)[nH]c3c(F)cc(F)cc32)C1 [Compound 349, (1r, 3r)-3-(5,7-difluoro-2-(4-fluorophenyl)-1H-indol-3-yl)cyclobutyl (1,3-dihydroxy-2-(hydroxymethyl)propan-2-yl)carbamate]	< 250
O=C(N[C@H]1CCNC1=O)N[C@H]1C[C@H](c2c(-c3ccc(F)cc3)[nH]c3c(F)cc(F)cc32)C1 [Compound 297]	> 1000
C[C@H](O)CNC(=O)N(C)CC1CC(c2c(-c3ccc(F)cc3)[nH]c3c(F)cc(F)cc23)C1 (stereo partly drawn) [Compound 430]	> 1000
CC(O)(CO)CNC(=O)C1CC(Cc2c(-c3ccc(F)cc3)[nH]c3c(F)cc(F)cc23)C1 (stereo not drawn) [Compound 324]	> 1000
O=C(NCc1cnco1)O[C@H]1C[C@H](c2c(-c3ccc(F)cc3)[nH]c3c(F)cc(F)cc32)C1 [Compound 353]	250 to 1000
CC[C@H](NCC1CC(c2c(-c3ccc(F)cc3)[nH]c3c(F)cc(F)cc23)C1)C(=O)NCC(F)(F)F (stereo partly drawn) [Compound 443]	> 1000
O=C(NCc1cnn(CC(F)(F)F)c1)C1CC(Cc2c(-c3ccc(F)cc3)[nH]c3c(F)cc(F)cc23)C1 (stereo not drawn) [Compound 331]	> 1000
O=C(NC[C@H]1C[C@H](c2c(-c3ccc(F)cc3)[nH]c3c(F)cc(F)cc32)C1)N[C@H]1C[C@H](O)C1 [Compound 411]	> 1000
Cc1nn(C)cc1CNC(=O)C1CC(Cc2c(-c3ccc(F)cc3)[nH]c3c(F)cc(F)cc23)C1 (stereo not drawn) [Compound 335]	> 1000
O=C(CN[C@H]1C[C@H](c2c(-c3ccc(F)cc3)[nH]c3c(F)cc(F)cc32)C1)NC1CC1 [Compound 293]	> 1000
O=C(CC1CC(c2c(-c3ccc(F)cc3)[nH]c3c(F)cc(F)cc23)C1)N[C@@H](CO)C(F)(F)F (stereo partly drawn) [Compound 462]	> 1000
NC(=O)CCNC1CC(c2c(-c3ccc(F)cc3)[nH]c3c(F)cc(F)cc23)C1 (stereo not drawn) [Compound 287, 3-[[3-[5,7-difluoro-2-(4-fluorophenyl)-1H-indol-3-yl]cyclobutyl]amino]propanamide]	> 1000
O=C(NCC1CCOCC1)C1CC(Cc2c(-c3ccc(F)cc3)[nH]c3c(F)cc(F)cc23)C1 (stereo not drawn) [Compound 326]	> 1000
CC(=O)NCCNC(=O)C1CC(Cc2c(-c3ccc(F)cc3)[nH]c3c(F)cc(F)cc23)C1 (stereo not drawn) [Compound 320]	> 1000
C[C@@H](O)CNC(=O)N[C@H]1C[C@H](c2c(-c3ccc(F)cc3)[nH]c3c(F)cc(F)cc32)C1 [Compound 296]	> 1000
O=C(NC[C@@H](O)C(F)(F)F)NC[C@H]1C[C@H](c2c(-c3ccc(F)cc3)[nH]c3c(F)cc(F)cc32)C1 [Compound 424]	> 1000
CC(O)(CO)CNC(=O)O[C@H]1C[C@H](c2c(-c3ccc(F)cc3)[nH]c3c(F)cc(F)cc32)C1 (mixture of isomers) [Compound 378]	> 1000
CC[C@@H](CO)NC(=O)NC[C@H]1C[C@H](c2c(-c3ccc(F)cc3)[nH]c3c(F)cc(F)cc32)C1 [Compound 421]	> 1000
O=C(NCCO)NC[C@H]1C[C@H](c2c(-c3ccc(F)cc3)[nH]c3c(F)cc(F)cc32)C1 [Compound 393]	> 1000
CO[C@H]1C[C@@H](NC(=O)O[C@H]2C[C@H](c3c(-c4ccc(F)cc4)[nH]c4c(F)cc(F)cc43)C2)C1 [Compound 390]	> 1000
O=C(N[C@H]1CCNC1=O)O[C@H]1C[C@H](c2c(-c3ccc(F)cc3)[nH]c3c(F)cc(F)cc32)C1 [Compound 371]	> 1000
C[C@@H](CO)NC(=O)CC1CC(c2c(-c3ccc(F)cc3)[nH]c3c(F)cc(F)cc23)C1 (stereo partly drawn) [Compound 458]	> 1000

SMILES	IC50 [nM]
O=C(NC[C@H]1C[C@H](c2c(-c3ccc(F)cc3)[nH]c3c(F)cc(F)cc32)C1)N[C@H]1CC[C@H]1O [Compound 394]	> 1000
C[C@@H](CO)NC(=O)O[C@H]1C[C@H](c2c(-c3ccc(F)cc3)[nH]c3c(F)cc(F)cc32)C1 [Compound 357]	250 to 1000
C[C@@H](O)CNC(=O)N(C)CC1CC(c2c(-c3ccc(F)cc3)[nH]c3c(F)cc(F)cc23)C1 (stereo partly drawn) [Compound 429]	> 1000
O=C(NCC1CC(F)(F)C1)C1CC(Cc2c(-c3ccc(F)cc3)[nH]c3c(F)cc(F)cc23)C1 (stereo not drawn) [Compound 328]	> 1000
CNC(=O)CN[C@H]1C[C@H](c2c(-c3ccc(F)cc3)[nH]c3c(F)cc(F)cc32)C1 [Compound 291]	250 to 1000
O=C(NCc1ncc[nH]1)O[C@H]1C[C@H](c2c(-c3ccc(F)cc3)[nH]c3c(F)cc(F)cc32)C1 [Compound 373]	> 1000
O=C(NCc1ccco1)O[C@H]1C[C@H](c2c(-c3ccc(F)cc3)[nH]c3c(F)cc(F)cc32)C1 [Compound 379]	> 1000
O=C(NC[C@H]1C[C@H](c2c(-c3ccc(F)cc3)[nH]c3c(F)cc(F)cc32)C1)NC1CC(O)C1 (stereo partly drawn) [Compound 420]	> 1000
NC(=O)CN[C@H]1C[C@H](c2c(-c3ccc(F)cc3)[nH]c3c(F)cc(F)cc32)C1 [Compound 294]	> 1000
CC(CO)NC(=O)O[C@H]1C[C@H](c2c(-c3ccc(F)cc3)[nH]c3c(F)cc(F)cc32)C1 (mixture of isomers) [Compound 356]	250 to 1000
CC1(NC(=O)C2CC(Cc3c(-c4ccc(F)cc4)[nH]c4c(F)cc(F)cc34)C2)CCNC1=O (stereo not drawn) [Compound 308]	> 1000
Cn1cncc1CNC(=O)C1CC(Cc2c(-c3ccc(F)cc3)[nH]c3c(F)cc(F)cc23)C1 (stereo not drawn) [Compound 344]	> 1000
COCCNC(=O)CC1CC(c2c(-c3ccc(F)cc3)[nH]c3c(F)cc(F)cc23)C1 (stereo not drawn) [Compound 460]	> 1000
CC(C)C[C@H](CO)NC(=O)C1CC(Cc2c(-c3ccc(F)cc3)[nH]c3c(F)cc(F)cc23)C1 (stereo partly drawn) [Compound 302]	> 1000
CC(CO)(CO)NC(=O)NC[C@H]1C[C@H](c2c(-c3ccc(F)cc3)[nH]c3c(F)cc(F)cc32)C1 [Compound 397]	> 1000
CS(=O)(=O)CCNC(=O)C1CC(Cc2c(-c3ccc(F)cc3)[nH]c3c(F)cc(F)cc23)C1 (stereo not drawn) [Compound 316]	> 1000
CC(NC(=O)C1CC(Cc2c(-c3ccc(F)cc3)[nH]c3c(F)cc(F)cc23)C1)C1CCOC1 (mixture of isomers) [Compound 345]	> 1000
CC1(O)CC(NC(=O)NC[C@H]2C[C@H](c3c(-c4ccc(F)cc4)[nH]c4c(F)cc(F)cc43)C2)C1 (stereo partly drawn) [Compound 401]	> 1000
O=C(NCc1cn(CC(F)(F)F)cn1)O[C@H]1C[C@H](c2c(-c3ccc(F)cc3)[nH]c3c(F)cc(F)cc32)C1 [Compound 386]	> 1000
O=C(N[C@@H](CO)C(F)(F)F)C1CC(Cc2c(-c3ccc(F)cc3)[nH]c3c(F)cc(F)cc23)C1 (stereo partly drawn) [Compound 306]	> 1000
COC[C@H](C)NC(=O)O[C@H]1C[C@H](c2c(-c3ccc(F)cc3)[nH]c3c(F)cc(F)cc32)C1 [Compound 364]	> 1000
O=C(N[C@@H]1CCNC1=O)O[C@H]1C[C@H](c2c(-c3ccc(F)cc3)[nH]c3c(F)cc(F)cc32)C1 [Compound 359]	250 to 1000
O=C(CN[C@H]1C[C@H](c2c(-c3ccc(F)cc3)[nH]c3c(F)cc(F)cc32)C1)NCO [Compound 289]	250 to 1000
CC(C)(O)CNC(=O)C1CC(Cc2c(-c3ccc(F)cc3)[nH]c3c(F)cc(F)cc23)C1 (stereo not drawn) [Compound 318]	> 1000
